ChEMBL document CHEMBL4390668, “Discovery and Structural Optimization of Acridones as Broad-Spectrum Antimalarials” (J Med Chem, 2019)

Key:
Plasmodium falciparum [1] = assay: Antimalarial activity against chloroquine-sensitive Plasmodium falciparum D6 infected in human erythrocytes by SYBR green 1-based fluorescence assay; assay type: functional, organism-based
Plasmodium falciparum [2] = assay: Antimalarial activity against multidrug-resistant Plasmodium falciparum Dd2 infected in human erythrocytes by SYBR green 1-based fluorescence assay; assay type: functional, organism-based
Plasmodium falciparum [3] = assay: Antimalarial activity against multidrug-resistant Plasmodium falciparum 7G8 infected in human erythrocytes by SYBR green 1-based fluorescence assay; assay type: functional, organism-based
Plasmodium falciparum [4] = assay: Antimalarial activity against atovaquone-resistant Plasmodium falciparum Tm90-C2B infected in human erythrocytes by SYBR green 1-based fluorescence assay; assay type: functional, organism-based
HepG2 = assay: Cytotoxicity against human HepG2 cells measured after 24 to 36 hrs by resazurin dye based fluorescence assay; assay type: cell-based
[5] = Selectivity index, ratio of IC50 for human HepG2 cells to IC50 for chloroquine-sensitive Plasmodium falciparum D6 infected in human erythrocytes; assay type: toxicity, cell-based; conditions: read-out: Ratio IC50
Plasmodium berghei = assay: Antimalarial activity against luciferase-expressing Plasmodium berghei ANKA 676m1cl1 sporozoites infected in human HepG2A16 cells measured after 45 hrs by luciferase-luciferin based reporter assay; assay type: functional, organism-based; conditions: ANKA 676m1cl1, HepG2A16, 45 h
[6] = Half life in human liver microsomes at 1 uM by LC-MS analysis; assay type: ADME, Microsome
[7] = Half life in mouse liver microsomes at 1 uM by LC-MS analysis; assay type: ADME, Microsome

Structure (SMILES)	IC50 (Plasmodium falciparum [1])	IC50 (Plasmodium falciparum [2])	IC50 (Plasmodium falciparum [3])	IC50 (Plasmodium falciparum [4])	IC50 (HepG2)	selectivity ratio [5]	IC50 (Plasmodium berghei)	half-life at 1 µM [6]	half-life at 1 µM [7]
CC(C)(C)NCCCCOc1ccc2c(=O)c3c(F)cc(F)cc3[nH]c2c1	75 nM	265 nM	14 nM	> 2500 nM	101000 nM	1350	362 nM	> 1 h	> 1 h
CCCCNCCCOc1ccc2c(=O)c3c(Cl)c(Cl)ccc3[nH]c2c1	46 nM	37 nM	106 nM	68 nM	22700 nM	492	–	–	–
O=c1c2ccc(OCCN3CCOCC3)cc2[nH]c2ccc(Cl)c(Cl)c12	65 nM	38 nM	273 nM	196 nM	> 100000 nM	> 1540	–	–	–
CCCN(CCC)CCOc1ccc2c(=O)c3ccc(Cl)cc3[nH]c2c1	2.5 nM	11 nM	9.1 nM	1540 nM	40600 nM	16300	14.8 nM	> 1 h	> 1 h
CCN(CC)CCCCCOc1ccc2c(=O)c3ccc(Cl)cc3[nH]c2c1	540 nM	511 nM	–	1040 nM	31300 nM	58	202 nM	> 1 h	> 1 h
CCCN(CCC)CCOc1ccc2[nH]c3ccc(Cl)c(Cl)c3c(=O)c2c1	99 nM	17 nM	32 nM	274 nM	12700 nM	128	–	–	–
CC(C)(C)NCCCOc1ccc2c(=O)c3c(Cl)c(Cl)ccc3[nH]c2c1	196 nM	1360 nM	1630 nM	> 2500 nM	24800 nM	127	–	–	–
O=c1c2ccc(OCCCCl)cc2[nH]c2cc(F)cc(F)c12	1.4 nM	0.3 nM	1.9 nM	89 nM	> 100000 nM	> 71400	–	–	–
CCN(CC)CCOc1ccc2c(=O)c3ccc(C(F)(F)F)cc3[nH]c2c1	816 nM	555 nM	1540 nM	1390 nM	38600 nM	47	–	–	–
CN(C)CCOc1ccc2c(=O)c3ccc(Cl)cc3[nH]c2c1	56 nM	63 nM	70 nM	563 nM	59000 nM	1050	–	–	–
CCCN(CCC)CCOc1ccc2[nH]c3cc(OC)cc(F)c3c(=O)c2c1	0.7 nM	0.13 nM	0.42 nM	47 nM	26400 nM	37700	0.65 nM	–	–
CC(C)(C)NCCCOc1ccc2c(=O)c3cc(Cl)c(Cl)cc3[nH]c2c1	123 nM	589 nM	421 nM	551 nM	6100 nM	49	–	–	–
CCCN(CCC)CCOc1ccc2c(=O)c3c(OC)cc(Cl)cc3[nH]c2c1	251 nM	184 nM	251 nM	> 2500 nM	45000 nM	179	–	–	–
O=c1c2ccc(OCCCCl)cc2[nH]c2ccc(Cl)cc12	24 nM	38 nM	51 nM	371 nM	> 100000 nM	> 4170	–	–	–
O=c1c2ccc(Cl)cc2[nH]c2cc(OCCN3CCCC3)ccc12	529 nM	781 nM	959 nM	1500 nM	25500 nM	48	456 nM	–	–
O=c1c2ccc(OCCCl)cc2[nH]c2cc(Cl)cc(Cl)c12	14 nM	12 nM	44 nM	409 nM	> 100000 nM	> 7140	–	–	–
CCCN(CCC)CCOc1ccc2[nH]c3cc(F)cc(OC)c3c(=O)c2c1	35 nM	105 nM	175 nM	> 250 nM	55700 nM	1590	–	–	–
CCN(CC)CCOc1ccc2c(=O)c3ccccc3[nH]c2c1	1350 nM	1190 nM	–	2530 nM	96800 nM	72	503 nM	–	–
CCCN(CCC)CCOc1ccc2[nH]c3cc(Cl)c(Cl)cc3c(=O)c2c1	26 nM	17 nM	14 nM	58 nM	> 100000 nM	> 3850	–	–	–
CCN(CC)CCOc1ccc2c(=O)c3cc(Cl)c(Cl)cc3[nH]c2c1	44 nM	132 nM	73 nM	507 nM	> 100000 nM	> 2270	–	–	–
CCN(CC)CCOc1ccc2c(=O)c3c(Cl)ccc(Cl)c3[nH]c2c1	506 nM	1300 nM	848 nM	> 2500 nM	77000 nM	152	–	–	–

Structure (SMILES)	IC50 (Plasmodium falciparum [1])	IC50 (Plasmodium falciparum [2])	IC50 (Plasmodium falciparum [3])	IC50 (Plasmodium falciparum [4])	IC50 (HepG2)	selectivity ratio [5]	IC50 (Plasmodium berghei)	half-life at 1 µM [6]	half-life at 1 µM [7]
CN(C)CCOc1ccc2c(=O)c3c(Cl)c(Cl)ccc3[nH]c2c1	393 nM	2000 nM	1250 nM	> 2500 nM	> 100000 nM	> 254	–	–	–
CCN(CC)CCOc1ccc2[nH]c3ccc(Cl)cc3c(=O)c2c1	159 nM	399 nM	521 nM	297 nM	> 100000 nM	> 629	–	–	–
CCN(CC)CCOc1ccc2c(=O)c3cc(Cl)ccc3[nH]c2c1	–	351 nM	304 nM	1160 nM	> 100000 nM	> 473	221 nM	–	–
CCCCNCCCOc1ccc2c(=O)c3cc(Cl)c(Cl)cc3[nH]c2c1	36 nM	145 nM	161 nM	177 nM	75200 nM	2490	–	–	–
CCN(CC)CCOc1ccc2c(=O)c3ccc(Cl)c(Cl)c3[nH]c2c1	749 nM	2440 nM	> 2500 nM	> 2500 nM	46000 nM	61	–	–	–
CCN(CC)CCCOc1ccc2c(=O)c3c(F)cc(F)cc3[nH]c2c1	32 nM	7.8 nM	44 nM	705 nM	38600 nM	1210	–	–	–
CCCCNCCCOc1ccc2c(=O)c3c(Cl)cc(Cl)cc3[nH]c2c1	101 nM	186 nM	294 nM	82 nM	11100 nM	110	–	–	–
CCCN(CCC)CCOc1ccc2[nH]c3cc(F)cc(F)c3c(=O)c2c1	0.4 nM	1 nM	3.2 nM	270 nM	20200 nM	50600	0.75 nM	–	–
CCN(CC)CCOc1ccc2c(=O)c3cc(Cl)cc(Cl)c3[nH]c2c1	928 nM	> 2500 nM	1290 nM	> 2500 nM	35000 nM	38	–	–	–
CCN(CC)CCOc1ccc2c(=O)c3ccc(Cl)cc3n(CCN(CC)CC)c2c1	49 nM	77 nM	86 nM	71 nM	> 40000 nM	> 816	–	–	–
CCCN(CCC)CCOc1ccc2[nH]c3cc(OC)cc(Cl)c3c(=O)c2c1	79 nM	92 nM	288 nM	558 nM	> 100000 nM	> 1270	–	–	–
CCCN(CCC)CCOc1ccc2[nH]c3cc(Cl)cc(OC)c3c(=O)c2c1	30 nM	11 nM	32 nM	96 nM	36800 nM	1220	–	–	–
CCN(CC)CCOc1ccc2c(=O)c3cc(F)c(F)cc3[nH]c2c1	146 nM	187 nM	110 nM	270 nM	> 200000 nM	> 1370	–	–	–
CC(C)(C)NCCCOc1ccc2c(=O)c3cc(Cl)ccc3[nH]c2c1	674 nM	1020 nM	> 2500 nM	2140 nM	75200 nM	112	–	–	–
O=c1c2ccc(OCCCl)cc2[nH]c2cc(F)cc(F)c12	5 nM	7 nM	22 nM	46 nM	> 200000 nM	> 40000	–	–	–
CCCN(CCC)CCOc1ccc2c(=O)c3ccc(C(F)(F)F)cc3[nH]c2c1	26 nM	0.44 nM	5.6 nM	1540 nM	> 100000 nM	> 3850	–	–	–
CC(C)(C)NCCCOc1ccc2c(=O)c3c(F)cc(F)cc3[nH]c2c1	115 nM	8.9 nM	627 nM	2500 nM	41500 nM	361	–	–	–
CCN(CC)CCOc1ccc2c(=O)c3cc(F)c(OC)cc3[nH]c2c1	156 nM	448 nM	533 nM	622 nM	> 200000 nM	> 1280	–	–	–
O=c1c2ccc(OCCCCl)cc2[nH]c2cc(Cl)c(Cl)cc12	179 nM	161 nM	2330 nM	945 nM	> 100000 nM	> 558	–	–	–
CCN(CC)CCNc1ccc2c(=O)c3cc(F)c(OC)cc3[nH]c2c1	526 nM	1170 nM	1300 nM	1510 nM	126000 nM	239	–	–	–
CCN(CC)CCOc1ccc2c(=O)c3cc(F)c(OCCN(CC)CC)cc3[nH]c2c1	116 nM	209 nM	774 nM	386 nM	> 200000 nM	> 12500	–	–	–
